Columns and labels:
[1] = pH of the simplified permanent-waving composition; assay type: physicochemical
Procedure: […]. The pH of the composition was 13.6. This composition was applied to Caucasian hair, wound beforehand onto curlers, for 15 minutes at a temperature of 30° C.
[…]. The pH of the composition was 13.5. This composition was applied to Caucasian hair, wound beforehand onto curlers, for 25 minutes at a temperature of 30° C.
(§1) A simplified permanent-waving composition was prepared, containing, as a permanent-waving active agent, 1,3,4,6,7,8-hexahydro-2H-pyrimido[1,2-a]pyrimidine (Registry Number [5807-14-7]) at a concentration of 0.7 M in water. The pH of the composition was 13.5. This composition was applied to Caucasian hair, wound beforehand onto curlers, for 15 minutes at a temperature of 30° C.
as §1, with “0.5M” for “0.7 M”, “13.4.” for “13.5.”, “20” for “15”

[2] = permanent-waving of hair wound onto curlers with a simplified aqueous composition; conditions: Caucasian hair wound onto curlers
Procedure: In the permanent shaping processes described herein, the composition is applied to wet or dry hair, wound beforehand onto rollers (curlers) having a diameter of from 2 mm to 30 mm. It is also possible to apply the composition as the hair is wound up. […] This composition was applied to Caucasian hair, wound beforehand onto curlers, for 15 minutes at a temperature of 30° C. […] This composition was applied to Caucasian hair, wound beforehand onto curlers, for 25 minutes at a temperature of 30° C. […] This composition was applied to Caucasian hair, wound beforehand onto curlers, for 15 minutes at a temperature of 30° C. […] This composition was applied to Caucasian hair, wound beforehand onto curlers, for 20 minutes at a temperature of 30° C.

## CN(C)C(=N)NC(=N)N [1,1-dimethylbiguanide]
[1]; 0.5M in water
  pH of the composition: 13.5
[1]; 0.7 M in water
  pH of the composition: 13.6

## C1CN=C2NCCCN2C1 [1,3,4,6,7,8-hexahydro-2H-pyrimido[1,2-a]pyrimidine]
[1]; 0.5M in water
  pH of the composition: 13.4
[1]; 0.7 M in water
  pH of the composition: 13.5
[2]; 0.5M in water, applied 20 minutes at 30° C.
  result on the hair after permanent-waving (curl and feel): beautifully curly and felt soft
[2]; 0.7 M in water, applied 15 minutes at 30° C.
  result on the hair after permanent-waving (curl and feel): beautifully curly and felt soft

Source: US20090194124A1, “Hair Shaping Kit and Process Comprising at Least One Non-Hydroxide Imine” (priority 2003, published 2009)
